Results from US20080234384A1, “BIARYL AND BIHETEROARYL COMPOUNDS USEFUL IN TREATING IRON DISORDERS” (XENON PHARMACEUTICALS INC., priority 2007, published 2008).
Structures can show the parent of a compound that is named as a salt.

molecular target: T1, DMT1 (Homo sapiens, UniProt P49281); assay: DMT1 Activity Assay (In Vitro Assay); type: cell-based; settings: read-out: IC50 Activity Level
T1 sequence (P49281 1-568): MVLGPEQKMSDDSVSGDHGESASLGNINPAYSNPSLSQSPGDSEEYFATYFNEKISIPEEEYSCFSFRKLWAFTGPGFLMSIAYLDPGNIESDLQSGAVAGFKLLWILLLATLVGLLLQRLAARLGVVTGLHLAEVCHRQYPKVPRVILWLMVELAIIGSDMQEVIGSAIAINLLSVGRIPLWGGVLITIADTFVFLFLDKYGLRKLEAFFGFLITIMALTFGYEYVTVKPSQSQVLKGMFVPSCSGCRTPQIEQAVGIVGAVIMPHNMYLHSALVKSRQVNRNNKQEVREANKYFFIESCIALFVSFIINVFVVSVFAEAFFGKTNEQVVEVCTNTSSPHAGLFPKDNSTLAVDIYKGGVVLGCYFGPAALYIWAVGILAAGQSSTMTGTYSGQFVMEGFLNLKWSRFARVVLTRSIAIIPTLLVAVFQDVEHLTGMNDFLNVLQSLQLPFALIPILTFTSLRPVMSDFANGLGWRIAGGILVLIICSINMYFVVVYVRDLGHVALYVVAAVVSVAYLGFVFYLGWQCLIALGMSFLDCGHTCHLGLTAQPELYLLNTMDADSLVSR
Text: In particular, identification of the compounds of the invention ability to modulate, preferably to inhibit, DMT1 activity, can be assessed using a variety of in vitro and in vivo assays, for measuring uptake of reduced iron (Fe^2+). One such protocol involves the screening of chemical agents for ability to modulate the activity of DMT1 thereby identifying it as a modulating agent. The in vitro activity of DMT1 can be measured in cell based assays by either directly measuring iron flux (using a radioactively labelled iron ^55Fe) or by measuring the fluorescence of a cell permeable iron fluorophore such as calcein. Stable cell lines overexpressing DMT1 are exposed to ^55Fe or loaded with calcein and then compound is applied. […] Alternatively, in another format electrophysiological techniques can be used to measure the current or iron or other metals traversing the cell membrane with DMT1 in a Xenopus oocyte or other cell based system (Gunshin et al., Nature, 1997, 31; 388(6641):482-8).
This example discloses various in vitro assay for testing and profiling test agents against DMT1 stably expressed in cells of either an endogenous or recombinant origin. These assays can use stable cell lines overexpressing DMT1 or intestinal cells and intestinal tissue expressing endogenous DMT1. DMT1 function could also be assessed in other cell types that express DMT1. Of greatest relevance would be the erythrocytes (e.g. K562 cells) or hepatocytes (e.g. […]).
DMT1 function can be assessed in a number of ways, including monitoring fluorescence changes of an iron fluorophore (e.g. calcein), monitoring uptake of radiolabelled iron (55Fe or ^59Fe) (Picard et al., J. Biol. Chem., 2000, 275(46):35738-45 and Wetli et al., Chem. Biol. 2006 September; 13(9):965-72), or by assessing the current or transport of iron and other metals into the cells or tissues using standard electrophysiological techniques (Gunshin et al., Nature, 1997, 388(6641):482-8.).
Variations of these assays involve alterations of incubation times, the iron status of the cells and tissues (which may be modulated by chemical chelators or by harvesting from iron deficient animals), the metal cation detected and the pH of the reaction can generally be made by conventional techniques known to those skilled in the art.

COc1ccc(Sc2ccc(F)cc2CSC(=N)N)c(CSC(=N)N)c1 [Example 1.6, 2-[2-(2-carbamimidoylsulfanylmethyl-4-methoxyphenylsulfanyl)-5-fluorobenzyl]isothiourea dihydrobromide] and N=C(N)SCc1cc(F)ccc1Sc1ccc(F)cc1CSC(=N)N [Example 2, 2-[2-(2-carbamimidoylsulfanylmethyl-4-fluoro-phenylsulfanyl)-5-fluoro-benzyl]-isothiourea dihydrobromide] fall in the same range of IC50: 100 to 1000 nM for the first, 100 to 1000 nM for the second.

N#CN=C(N)Cc1ccccc1Sc1ccccc1CC(N)=NC#N [Example 7.1, 2-(6-((cyanoamidino)methyl)phenyl)thio-1-((cyanoamidino)methyl)benzene] and N=C(N)CCc1ccccc1Sc1ccccc1CCC(=N)N [Example 6, 2-(6-(2-amidinoethyl)phenyl)thio-1-(2-amidinoethyl)benzene] cannot be ordered by IC50: ≥ 1000 nM for the first, ≥ 1000 nM for the second.

N=C(N)SCc1ccccc1Sc1cc(F)c(F)cc1CSC(=N)N [Example 1.9, 2-[2-(2-carbamimidoylsulfanylmethyl-4,5-difluorophenylsulfanyl)-benzyl]isothiourea dihydrobromide] and N=C(N)SCc1ccccc1Sc1cc(F)ccc1CSC(=N)N [Example 1.12, 2-[2-(2-carbamimidoylsulfanylmethyl-5-fluorophenylsulfanyl)benzyl]-isothiourea dihydrobromide] fall in the same range of IC50: 100 to 1000 nM for the first, 100 to 1000 nM for the second.

First: N=C(N)SCc1cc(F)ccc1Oc1ccc([N+](=O)[O-])cc1CSC(=N)N [Example 2.14, 2-[2-({[amino(imino)methyl]thio}methyl)-4-fluorophenoxy]-5-nitrobenzyl imidothiocarbamate dihydrobromide]
Second: N=C(N)SCc1cc(F)ccc1Sc1ccc([N+](=O)[O-])cc1CSC(=N)N [Example 2.1, 2-{[2-({[amino(imino)methyl]thio}methyl)-4-fluorophenyl]thio}-5-nitrobenzyl imidothiocarbamate dihydrobromide]
The IC50 of the first is higher: 100 to 1000 nM for the first, 10 to 100 nM for the second.

N#Cc1ccc(Sc2ccc(Cl)cc2CSC(=N)N)c(CSC(=N)N)c1 [Example 2.8, 2-{[2-({[amino(imino)methyl]thio}methyl)-4-chlorophenyl]thio}-5-cyanobenzyl imidothiocarbamate dihydrobromide] and N=C(N)SCc1cc(Cl)ccc1Sc1ccc(Cl)cc1CSC(=N)N [Example 1.22, 2-[2-(2-carbamimidoylsulfanylmethyl-4-chlorophenylsulfanyl)-5-chlorobenzyl]isothiourea dihydrobromide] cannot be ordered by IC50: ≥ 1000 nM for the first, ≥ 1000 nM for the second.

N=C(N)SCc1ccccc1C(=O)c1cc(Cl)ccc1CSC(=N)N [Example 2.28, 2-(6-(amidinothiomethyl)phenyl)carbonyl-1-(amidinothiomethyl)-4-chlorobenzene dihydrobromide dihydrobromide] and Cc1ccc(Sc2ccccc2CSC(=N)N)c(CSC(=N)N)c1 [Example 1.10, 2-[2-(2-carbamimidoylsulfanylmethyl-4-methylphenylsulfanyl)-benzyl]isothiourea dihydrobromide] cannot be ordered by IC50: ≥ 1000 nM for the first, 100 to 1000 nM for the second.

CCNc1ccc(Sc2ccccc2CSC(=N)N)c(CSC(=N)N)c1 [Example 1.21, 2-[2-(2-carbamimidoylsulfanylmethylphenylsulfanyl)-5-ethylaminobenzyl]isothiourea trihydrobromide] and N=C(N)SCc1ccccc1Sc1ccc(F)cc1CSC(=N)N [Example 1.2, 2-[2-(2-carbamimidoylsulfanylmethyl-4-fluorophenylsulfanyl)benzyl]-isothiourea dihydrobromide] cannot be ordered by IC50: ≥ 1000 nM for the first, 100 to 1000 nM for the second.

N=C(N)NCCc1ccccc1Sc1ccccc1CCNC(=N)N [Example 5, (4-methylbenzenesulfonate)] and N=C(N)SCc1ccccc1-c1ccccc1CSC(=N)N [Example 9, 2-(2′-carbamimidoylsulfanylmethyl-biphenyl-2-ylmethyl)-isothiourea] cannot be ordered by IC50: ≥ 1000 nM for the first, ≥ 1000 nM for the second.

N=C(N)SCCc1cc(F)ccc1Sc1ccc(F)cc1CSC(=N)N [Example 1.23, 2-[2-(2-carbamimidoylsulfanylethyl-4-fluorophenylsulfanyl)-5-fluorobenzyl]isothiourea dihydrobromide] and N=C(N)SCCc1cc(Cl)ccc1Sc1ccc(F)cc1CSC(=N)N [Example 1.24, 2-[2-(2-carbamimidoylsulfanylethyl-4-chlorophenylsulfanyl)-5-fluorobenzyl]isothiourea dihydrobromide] fall in the same range of IC50: 100 to 1000 nM for the first, 100 to 1000 nM for the second.

N=C(N)SCc1ccccc1Oc1ccccc1CSC(=N)N [Example 2.15, 2-[2-(2-carbamimidoylsulfanylmethylphenoxy)benzyl]isothiourea dihydrobromide] and N=C(N)SCc1ccccc1Oc1cccc(Cl)c1CSC(=N)N [Example 2.17, 2-[2-({[amino(imino)methyl]thio}methyl)-3-chlorophenoxy]benzyl imidothiocarbamate dihydrobromide] cannot be ordered by IC50: ≥ 1000 nM for the first, ≥ 1000 nM for the second.

N=C(N)SCc1cc(F)ccc1Oc1cc(F)ccc1CSC(=N)N [Example 2.12, 2-[2-(2-carbamimidoylsulfanylmethyl-5-fluorophenoxy)-5-fluorobenzyl]isothiourea dihydrobromide] and N=C(N)SCc1cc(F)ccc1Sc1cc(F)ccc1CSC(=N)N [Example 1.15, 2-[2-(2-carbamimidoylsulfanylmethyl-5-fluorophenylsulfanyl)-5-fluorobenzyl]isothiourea dihydrobromide] fall in the same range of IC50: 100 to 1000 nM for the first, 100 to 1000 nM for the second.

N=C(N)SCc1ccccc1S(=O)(=O)c1ccccc1CSC(=N)N [Example 2.3, 2-[2-(2-carbamimidoylsulfanylmethylphenylsulfonyl)benzyl]-isothiourea dihydrobromide] and Cc1cccc(CSC(=N)N)c1Sc1ccccc1CSC(=N)N [Example 1.8, 2-[2-(2-carbamimidoylsulfanylmethyl-6-methylphenylsulfanyl)-benzyl]isothiourea dihydrobromide] cannot be ordered by IC50: ≥ 1000 nM for the first, ≥ 1000 nM for the second.

COC(=O)c1cccc(CSC(=N)N)c1-c1c(CSC(=N)N)cccc1C(=O)OC [Example 2.24, dimethyl 6,6′-bis(carbamimidoylthiomethyl)biphenyl-2,2′-dicarboxylate dihydrobromide] and Cc1ccc(CSC(=N)N)c(Sc2ccccc2CSC(=N)N)c1 [Example 1.3, 2-[2-(2-carbamimidoylsulfanylmethyl-5-methylphenylsulfanyl)-benzyl]isothiourea dihydrobromide] cannot be ordered by IC50: ≥ 1000 nM for the first, ≥ 1000 nM for the second.

CN(C)S(=O)(=O)c1ccc(Sc2ccc(F)cc2CSC(=N)N)c(CSC(=N)N)c1 [Example 2.2, 2-({2-({[amino(imino)methyl]thio}methyl)-4-[(dimethylamino)sulfonyl]phenyl}thio)-5-fluorobenzyl imidothiocarbamate dihydrobromide] and N=C(N)SCc1cc(F)ccc1Sc1cc(Cl)ccc1CSC(=N)N [Example 1.7, 2-[2-(2-carbamimidoylsulfanylmethyl-5-chloro-phenylsulfanyl)-5-fluoro-benzyl]-isothiourea dihydrobromide] fall in the same range of IC50: 100 to 1000 nM for the first, 100 to 1000 nM for the second.

N=C(N)SCc1cc(F)ccc1Sc1ccc2ccccc2c1CSC(=N)N [Example 1.14, 2-[2-(1-carbamimidoylsulfanylmethylnaphthalen-2-ylsulfanyl)-5-fluorobenzyl]isothiourea dihydrobromide] and N=C(N)SCc1cc(F)ccc1Sc1sccc1CSC(=N)N [Example 2.6, (2-{[2-({[amino(imino)methyl]thio}methyl)-4-fluorophenyl]thio}-3-thienyl)methyl imidothiocarbamate dihydrochloride] cannot be ordered by IC50: ≥ 1000 nM for the first, ≥ 1000 nM for the second.

CC(SC(=N)N)c1ccccc1Oc1ccccc1C(C)SC(=N)N (centres unmarked) [Example 1, 2-(1-{2-[2-(1-carbamimidoylsulfanylethyl)phenoxy]phenyl}ethyl)-isothiourea dihydrobromide] and NC(=S)Nc1ccccc1Sc1ccccc1NC(N)=S [Example 8, 1,1′-(2,2′-thiobis(2,1-phenylene))dithiourea] cannot be ordered by IC50: ≥ 1000 nM for the first, ≥ 1000 nM for the second.
